# Experimental data as given in US20040043417A1, “Generation and screening of a dynamic combinatorial library” (priority 2000, published 2004).
# Biological target: Concanavalin A (Canavalia ensiformis, UniProt P02866)
# Assay: Screening of acyl hydrazone libraries against Concanavalin A, competitive binding assay
# Procedure: The library was then made up of one part (40 μL) of each of these solutions, buffered with sodium acetate buffer (50 μL, 1 M, pH 4.0), and diluted with water (510 μL) to a final concentration of 1 mM of each building block, and 50 mM buffer. The resulting libraries were allowed to equilibrate for one week at room temperature to assure complete reaction, and used directly, or following concentration/dilution, in the subsequent screening tests.
compound,measurement,value
"NNC(=O)CCCCCCCCC(=O)NN [SED, sebacoyldihydrazide]",contribution of building block to the binding to Concanavalin A,important contributions to the binding
